The values below come from PubChem BioAssay (NCI).

Common to all, as to assay: NCI-60 cell line screen, 48 h
Assay [1] has as its system MOLT-4 leukemia.
The test system of assay [2] is UACC-257 melanoma.
Assay [3] deals with LOX IMVI melanoma.
Assay [4] relates to CAKI-1 renal.
Assay [5] has as its system MCF7 breast.
Assay [6] deals with ACHN renal.
In assay [7] the test system is OVCAR-5 ovarian.
Assay [8] relates to PC-3 prostate.
Assay [9] deals with EKVX NSCLC.
Assay [10] relates to U251 CNS.
Assay [11] has as its system KM12 colon.
Assay [12] deals with HT29 colon.
The test system of assay [13] is MDA-MB-435.
The subject of assay [14] is NCI-H226 lung.
For assay [15], the system named is DU-145 prostate.
Assay [16] has as its system COLO 205 colon.
The subject of assay [17] is CCRF-CEM leukemia.
For assay [18], the system named is SF-268 CNS.
The test system of assay [19] is HL-60(TB) leukemia.

SMILES strings stand for the structures.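 Test compounds were applied to cells in 96-well plates for 48 hours at 5 doses. Definition used: TGI = concentration required for complete inhibition of growth.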

Take `O=[N+]([O-])c1ccc(-c2csc(N=Nc3c(O)[nH]c4ccccc34)n2)cc1`: the TGI in assay [1] is more than 100 µM; in assay [2], more than 100 µM; in assay [3], more than 100 µM; in [4], 39.4 µM; in [5], more than 100 µM; in [6], more than 100 µM. The TGI in assay [7] is 45.4 µM; in assay [8] it was 86.2 µM; in assay [9] it was more than 100 µM; in [10], more than 100 µM; in [11], more than 100 µM; in assay [12] it was 76.6 µM. In addition, the TGI in assay [13], in assay [14], in assay [15] and in assay [16] was more than 100 µM throughout.
For the compound `C(=N\c1nc2cc3sc(/N=C/c4ccccc4)nc3cc2s1)/c1ccccc1`, the TGI in assay [1] is more than 80.9 µM; in assay [2] it was more than 100 µM; in assay [3], more than 100 µM; in [4], more than 100 µM; in assay [5], more than 100 µM; in assay [6], more than 100 µM. For the same compound, the TGI in assay [17] was 42 µM; in assay [7] it was more than 100 µM; in assay [8], more than 100 µM; in [9], more than 100 µM; in assay [18] it was more than 100 µM; in [10], more than 100 µM. The TGI in assay [11] was more than 100 µM; in [12] it was more than 100 µM; in assay [13] it was more than 100 µM; in [14] it was more than 74 µM; in [15], more than 100 µM; in assay [16], more than 100 µM.
Consider `CCOP(=O)(CC(=O)C1CC1)OCC`, for which the TGI in assay [1], in [2], in assay [3], in [4], in assay [5] and in assay [6] was more than 100 µM in each case. In addition, the TGI in assay [17], in [7], in [8], in [9], in assay [18] and in [10] was more than 100 µM throughout. The TGI in assay [11], in assay [12], in assay [19], in assay [14], in assay [15] and in assay [16] was more than 100 µM each time.
For `Nc1ncnc2c1ncn2[C@H]1C=C[C@@H](NO)C1`, the TGI in assay [1], in [2], in assay [3], in assay [4], in assay [5] and in assay [6] was more than 100 µM each time. The TGI in assay [17], in assay [7], in assay [8], in assay [9], in assay [18] and in assay [10] was more than 100 µM throughout. The TGI in [11], in assay [13], in assay [14], in [15] and in assay [16] was more than 100 µM throughout.
As to `COC(=O)C1CCC(=O)N1C(c1ccc(OC)cc1)c1cc(OC)c(OC)c(OC)c1` (stereo not drawn), the TGI in [1] was more than 61.1 µM; in assay [2], more than 100 µM; in assay [3], more than 36.9 µM; in assay [4], more than 100 µM; in assay [5], more than 100 µM; in [6], more than 100 µM. Moreover, the TGI was more than 100 µM in assay [17]; more than 100 µM in assay [7]; more than 37.4 µM in assay [8]; more than 100 µM in assay [9]; more than 100 µM in assay [18]; more than 100 µM in assay [10]. Moreover, the TGI in assay [11] is 1.12 µM; in assay [13], 0.243 µM; in assay [14], 2.11 µM; in [15], 0.771 µM; in assay [16], 0.802 µM.
Regarding `Cc1cc(N(CCC#N)CCC#N)ccc1/C(N=Nc1ccc([N+](=O)[O-])cc1)=N\NC(=O)c1cc(Cl)ccc1O`, the TGI was 72.3 µM in assay [1]; more than 100 µM in [2]; more than 100 µM in assay [4]; more than 100 µM in assay [5]; more than 100 µM in assay [6]; more than 100 µM in assay [17]. In addition, the TGI in assay [7] is more than 100 µM; in [8], more than 100 µM; in [9], 82.4 µM; in [18] it was 91.3 µM; in [10], more than 100 µM; in assay [11], more than 100 µM. Also, the TGI in assay [12] was more than 100 µM; in assay [13], more than 100 µM; in assay [14], 93 µM; in assay [15], more than 100 µM; in [16], 54.2 µM.
Take `COC1OC2COC1(OCc1ccccc1)C1OC(C)(C)OC21` (stereo not drawn): the TGI in assay [1], in [2], in assay [4], in assay [5], in assay [6] and in [17] was more than 100 µM each time. Besides, the TGI in [7], in [8], in assay [9], in assay [18], in assay [10] and in assay [11] was more than 100 µM each time. The TGI in assay [12], in assay [13], in assay [14], in assay [15] and in [16] was more than 100 µM throughout.
In the case of `NCC(=O)Nc1ccccc1`, the TGI in assay [1], in assay [2], in assay [3], in assay [4], in assay [6] and in [7] was more than 100 µM throughout. Besides, the TGI in [8], in [9], in [18], in assay [10], in assay [11] and in [12] was more than 100 µM in each case. For the same compound, the TGI in assay [13], in assay [14] and in assay [15] was more than 100 µM throughout.
For the compound `COC(=O)C(Cc1c[nH]c2ccccc12)NC(=O)C(Cc1cnc[nH]1)NC(=O)C1CCC(=O)N1C(=O)OCc1ccccc1` (stereo not drawn), the TGI in assay [1], in [2], in assay [5], in assay [6], in assay [17] and in assay [7] was more than 100 µM each time. Besides, the TGI in assay [8], in [9], in assay [10], in [11], in [12] and in assay [19] was more than 100 µM in each case. Moreover, the TGI in [14] and in [16] was more than 100 µM each time.
For the compound `CN1CCC2(CC1)SSC1(CCN(C)CC1)S2`, the TGI in assay [1], in assay [2], in assay [3], in assay [6], in assay [17] and in assay [7] was more than 100 µM throughout. Moreover, the TGI in assay [8], in [10], in assay [11], in assay [12], in assay [13] and in assay [19] was more than 100 µM in each case. Further, the TGI in assay [16] is more than 100 µM.
For the compound `CC1CCN(C(C)C)P(=S)(Cc2ccccc2)O1` (stereo not drawn), the TGI in [1], in [2], in assay [3], in assay [4], in assay [5] and in assay [6] was more than 100 µM each time. In addition, the TGI in assay [7], in assay [8], in assay [9], in [18], in [10] and in assay [11] was more than 100 µM throughout. Moreover, the TGI in assay [12], in assay [13], in assay [14], in assay [15] and in assay [16] was more than 100 µM in each case.
Consider `Cc1ccc2c(c1)nc1n2C(c2c(F)cccc2F)SC1` (stereo not drawn), for which the TGI is 87.4 µM in assay [1]; more than 100 µM in [2]; more than 100 µM in assay [3]; more than 100 µM in assay [4]; more than 100 µM in assay [5]; more than 100 µM in [6]. The TGI in assay [17], in assay [7], in assay [8], in assay [9], in [18] and in [10] was more than 100 µM in each case. Further, the TGI in assay [11], in [12], in assay [13], in assay [14] and in [16] was more than 100 µM each time.
`CCOC(=O)C12CCC(=O)N1N(C)c1ncccc1N2` (stereo not drawn): the TGI in [1], in assay [2], in [3], in assay [4], in assay [5] and in assay [6] was more than 100 µM throughout. Moreover, the TGI in assay [17], in [7], in assay [9], in [18], in assay [10] and in assay [11] was more than 100 µM throughout. The TGI in assay [12], in assay [13], in [14], in [15] and in [16] was more than 100 µM in each case.
